Source: patent publication US20260284020A1, “LATS KINASE INHIBITOR TO TREAT RETINAL DEGENERATION” (Children's Hospital Los Angeles, priority 2023, published 2026)
Entries after “also recorded” stand apart in the source; their conditions may differ. Where two headings read alike, the source gives them in different places.

Experiments:
[1] = system: primary human fetal RPE monolayers; assay: PAX6 / RPE differentiation marker expression of EdU+ RPE cells after scratch; assay type: cell-based
Method: Ninety-six hours after the scratch, cells were immediately fixed with 4% paraformaldehyde (PFA) in phosphate-buffered saline (PBS) for 15 minutes at room temperature (RT). Cells were washed three times with PBS in between each step. Following fixation, cells were blocked and permeabilized with 3% bovine serum albumin (BSA) and 0.1% Triton X-100 in PBS for 2 hours at RT. Cells were then incubated with an EdU reaction cocktail according to the manufacturer's instructions for 30 minutes at RT, protected from light. Then, cells were incubated overnight with primary antibodies diluted in 3% BSA in PBS. The following morning, cells were incubated with secondary antibodies diluted in 3% BSA in PBS for 2 hours at RT, protected from light. Cells were counterstained with DAPI and then washed. A list of reagents and dilutions used can be found in Table 1.
Within each region, cell proliferation was quantified by dividing EdU/DAPI doubly positive cells by the total number of DAPI+ cells, expressed as a percentage. PAX6 expression was quantified as the ratio of PAX6+ nuclei among EdU/DAPI doubly positive nuclei, also expressed as a percentage.
In order to characterize RPE cell fate in response to Lats kinase inhibition in the context of injury, cells were stained with PAX6 and RPE65.

[2] = system: RPE injury by laser photocoagulation in Dutch-belted rabbits; assay: In vivo laser injury model: retinal immunohistochemistry, quantification of cell proliferation; set-up: species or system rabbit; details: for percentage of Ki67+ cells in the choroid vs control (in words): 1- or 4-week time points
Method: (§1) Following the laser procedure, the eyes were anesthetized once more with topical proparacaine. Povidone-iodine was applied to the conjunctiva or sclera using sterile Q-tips. Either 50 μL of 15 mM LATS kinase inhibitor (LKI), or vehicle control, was injected per eye using 1 mL Luer-lock syringe with a 27G 1½ inch needle. The second generation LKI, TDI-011536, was used as a micro-suspension formulation prepared in phosphate buffer solution (PBS; Sigma) supplemented with 0.5% carboxymethyl cellulose (Sigma) and 0.5% Kolliphor P 188 Bio (BASF Pharma). Intravitreal injections containing LKI were administered in the right eye and control injections were administered in the left eye. Injections were administered 1-2 mm posterior to the superotemporal or superonasal limbus and delivery of each compound was confirmed on indirect ophthalmoscopy.
Eyes used for immunofluorescence staining were processed according to a previously described protocol. Briefly, eyes were immediately placed in 50 mL 4% PFA in PBS on ice. After 15 minutes, eyes were removed from 4% PFA in PBS and the cornea and iris were removed under a dissecting microscope. With the cornea and iris removed, eyes were placed back in 50 mL 4% PFA and agitated overnight at 4° C. The following morning, the lens was removed. Eyes were then placed in 50 mL of 30% sucrose in PBS at 4° C. for cryoprotection. Once cryoprotection was complete, eyes were removed from 30% sucrose solution and embedded in optimal cutting temperature (OCT) compound.
Following embedding, eyes were mounted on a Leica cryostat (Leica Microsystems, Wetzlar, Germany) for sectioning. All retinal sections were 14 μm thickness and attached to a glass slide. A list of materials used can be found in Table 1.
To quantify RPE proliferation at the site of laser injury in vivo, regions 400 μm in width were centered on the outer nuclear layer (ONL) defect. Laser spots with ONL defects <30 μm in diameter, retinal detachments >225 μm, or an adjacent laser spot <200 μm away from the center of the ONL defect were excluded from analysis. Additionally, laser spots with significant tissue folding or tears were excluded. RPE cross-sectional area in μm^2 was obtained using the Wand Tool in QuPath using the RPE65 channel. RPE proliferation was quantified as the number of Ki67+ cells divided by DAPI+ cells within the RPE layer, expressed as a percentage. Choroidal proliferation was quantified as the number of Ki67+ cells divided by DAPI+ cells in the choroid.
To evaluate the effect of LKI on Müller glia at the site of injury, glial cell proliferation was quantified as the number of Ki67/Sox2 doubly positive cells divided by total number of Sox2/DAPI doubly positive cells within the 400 μm laser region, expressed as a percentage.
To evaluate the effect of LKI in undamaged retina, regions 400 μm in width in the peripheral retina were analyzed. The percentages of Ki67+ cells in the RPE layer, Ki67/Sox2 doubly positive cells, and Ki67+ cells in the choroid in unaffected regions were calculated in an identical fashion.
To further evaluate the effect of Lats kinase inhibition on the RPE injury response in vivo, eyes injected with LKI (n=9 eyes) or vehicle (n=8 eyes) from three independent experiments were cryosectioned and immunolabeled with Ki-67, a marker of cell proliferation. Additionally, sections were labeled with RPE65 to visualize RPE, Sox2 to visualize Müller glia, and Dapi to label all cell nuclei. […] RPE cross-sectional area was 14129±5605 μm^2 in LKI laser spots and 6221±914.2 μm^2 in control laser spots (P<0.0001). RPE maximal thickness was 56.36±19.23 μm in LKI laser spots and 23.08±8.46 μm in control laser spots (P<0.0001). Within the RPE layer, there was a significant increase in Ki67+ cells with LKI compared to the control (FIG. 5A, 5D). The percentage of Ki67+ RPE was 8.75±4.22% in LKI laser spots and 1.55±3.21% in control laser spots (P<0.001). […]

RPE monolayers = assay: Toxic effects in vitro; assay type: cell-based, human
Dutch-belted rabbits = assay: Toxic effects / tolerability of intravitreal injection in vivo; set-up: species or system rabbit
Method: as §1

Solubility of the drug = assay type: physicochemical
[3] = laser spots, 1 week, intravitreal 50 μL of 15 mM, mean±SD
[4] = laser spots, 1 week, listed as LKI

O=C(/N=c1\scc(CO)n1Cc1ccccc1)c1c[nH]c2ncccc12 [TDI-011536]
EdU/PAX6 doubly positive cells in the scratch site, LKI vs control (in words) ([1]; 96 hours post-scratch): no significant difference | EdU+ cells within the original scratch site that expressed PAX6 ([1]; 96 hours post-scratch, scratch site): 99.67±1.46% | expression of early and late markers of RPE differentiation (in words) ([1]; in vitro injury model, after exposure): nearly all RPE cells expressed both early and late markers of RPE differentiation | Ki67+ (Sox2/Ki67 doubly positive) Müller glia in undamaged regions (outside of laser spots) ([2]; 1 week, listed as LKI): no Sox2/Ki67++ cells | Ki67+ cells within the RPE layer in undamaged regions (outside of laser spots) ([2]; 1 week, listed as LKI): no Ki67+ RPE cells | Ki67+ (Sox2/Ki67 doubly positive) Müller glia in undamaged regions ([2]; 4 weeks, listed as LKI): no Sox2/Ki67++ cells | Ki67+ cells within the RPE layer in undamaged regions ([2]; 4 weeks, listed as LKI): no Ki67+ RPE cells | percentage of Ki67+ cells in the choroid vs control (in words) ([2]; laser regions): no significant difference | RPE cross-sectional area [2, 3]: 14129±5605 μm^2 | RPE maximal thickness [2, 3]: 56.36±19.23 μm | Ki67+ Sox2+ cells (Müller glia) compared to control (in words) [2, 4]: Sox2+ and Ki67+Müller glia were observed; also recorded: significantly in increased | RPE cross-sectional area compared to control (in words) [2, 4]: increase in underlying RPE cross-sectional area; also recorded: significantly increased | percentage of Ki67+ RPE cells compared to control (in words) [2, 4]: increase; also recorded: significantly increased | Ki67+ cells within the choroid ([2]; laser spots, 1 week, mean±SD): 6.66±5.37% | percentage of Ki67+ RPE (Ki67+ cells within the RPE layer) ([2]; laser spots, 1 week, mean±SD): 8.75±4.22% | percentage of Ki67+ Sox2+ cells (Müller glia) ([2]; laser spots, 1 week, mean±SD): 11.00±5.11% | Ki67+ Sox2+ cells (Müller glia) compared to control (in words) ([2]; laser spots, 4 weeks): no significant difference | RPE maximal thickness compared to control (in words) ([2]; laser spots, 4 weeks): increase in underlying RPE cross-sectional area and maximal thickness | percentage of Ki67+ RPE cells compared to control (in words) ([2]; laser spots, 4 weeks): no significant difference | RPE cross-sectional area ([2]; laser spots, 4 weeks, intravitreal 50 μL of 15 mM, mean±SD): 15800 ± 6530 µm² | RPE cross-sectional area compared to control (in words) ([2]; laser spots, 4 weeks, listed as LKI): increase in RPE cross-sectional area; also recorded: significantly increased | Ki67+ cells within the choroid ([2]; laser spots, 4 weeks, mean±SD): 0.39±0.71% | percentage of Ki67+ RPE (Ki67+ cells within the RPE layer) ([2]; laser spots, 4 weeks, mean±SD): 0.29±0.90% | percentage of Ki67+ Sox2+ cells (Müller glia) ([2]; laser spots, 4 weeks, mean±SD): 1.23±3.25% | overall effect of intravitreal LKI microsuspension in the laser injury model (in words) ([2]; rabbits, intravitreal 50 μL of 15 mM microsuspension): extensive RPE proliferation and wound healing without measurable effects on off-target cell types or uninjured regions | percentage of Ki67+ cells in the choroid vs control (in words) ([2]; undamaged regions): no significant difference | toxic effects in vitro (RPE monolayers): No toxic effects | toxic effects in vitro (RPE monolayers; listed as LKI): no toxic effects | tolerability of intravitreal injection (Dutch-belted rabbits; animal model): well-tolerated | toxic effects in vivo (Dutch-belted rabbits; rabbit, in vivo): no toxic effects | solubility (in words) (Solubility of the drug): highly insoluble
